# pIC50: −log10 of the molar value.
# Experiments:
# Assay type in all cases: functional
# RPMI-8226 [1] = experiment: Effect on DNA synthesis was determined by incorporation of radioligand into 8226 human myeloma cells at a concentration of 0.3 ug/mL (*: >50% cell kill)
# RPMI-8226 [2] = experiment: Effect on DNA synthesis was determined by incorporation of radioligand into 8226 human myeloma cells at a concentration of 0.5 ug/mL. (*: >1 log cell kill)
# RPMI-8226 [3] = experiment: Effect on DNA synthesis was determined by incorporation of radioligand into 8226 human myeloma cells at a concentration of 1 ug/mL. (*: >1 log cell kill)
# RPMI-8226 [4] = experiment: Effect on protein synthesis was determined by incorporation of radioligand into 8226 human myeloma cells at a concentration of 0.01 ug/mL
# RPMI-8226 [5] = experiment: Effect on protein synthesis was determined by incorporation of radioligand into 8226 human myeloma cells at a concentration of 0.5 ug/mL. (*: >1 log cell kill)
# RPMI-8226 [6] = experiment: Effect on RNA synthesis was determined by incorporation of radioligand into 8226 human myeloma cells at a concentration of 0.3 ug/mL (*: >50% cell kill)
# L1210 [7] = experiment: Antileukemic activity against L-1210 cells in mice at a dose of 30 mg/kg administered intraperitoneally after 5 day treatment; conditions: Mus musculus, L1210, ip, 120 h, route intraperitoneal
# L1210 [8] = experiment: Antileukemic activity against L-1210 cells in mice at a dose of 60 mg/kg administered intraperitoneally after 1 day treatment; conditions: Mus musculus, L1210, ip, 24 h, route intraperitoneal
# L1210 [9] = experiment: Effect on protein synthesis was determined by incorporation of radioligand into L1210 murine leukemia at a concentration of 0.3 ug/mL (*: >50% cell kill); conditions: Mus musculus
# L1210 [10] = experiment: Effect on RNA synthesis was determined by incorporation of radioligand into L1210 murine leukemia at a concentration of 0.5 ug/mL. (*: >1 log cell kill); conditions: Mus musculus
# L1210 [11] = experiment: Antileukemic activity against L-1210 cells in mice at a dose of 70 mg/kg administered intraperitoneally after 1 day treatment; conditions: Mus musculus, L1210, ip, 24 h, route intraperitoneal
# L1210 [12] = experiment: Antileukemic activity against L-1210 cells in mice at a dose of 80 mg/kg administered intraperitoneally after 1 day treatment; conditions: Mus musculus, L1210, ip, 24 h, route intraperitoneal
# L1210 [13] = experiment: Antileukemic activity against L-1210 cells in mice at a dose of 80 mg/kg administered intraperitoneally after 5 day treatment; conditions: Mus musculus, L1210, ip, 120 h, route intraperitoneal
# L1210 [14] = experiment: Antileukemic activity against L-1210 cells in mice at a dose of 90 mg/kg administered intraperitoneally after 1 day treatment; conditions: Mus musculus, L1210, ip, 24 h, route intraperitoneal
# L1210 [15] = experiment: Effect on DNA synthesis was determined by incorporation of radioligand into L1210 murine leukemia at a concentration of 1 ug/mL. (*: >1 log cell kill); conditions: Mus musculus
# L1210 [16] = experiment: Effect on RNA synthesis was determined by incorporation of radioligand into L1210 murine leukemia at a concentration of 0.3 ug/mL (*: >50% cell kill); conditions: Mus musculus
# L1210 [17] = experiment: Effect on DNA synthesis was determined by incorporation of radioligand into L1210 murine leukemia at a concentration of 10 ug/mL (*: >1 log cell kill); conditions: Mus musculus
# Mus musculus [18] = experiment: Tested for high-dose toxicity in mice at a significant dose of 100 mg/kg administered intraperitoneally after 1 days of treatment; conditions: route intraperitoneal
# Mus musculus [19] = experiment: Tested for high-dose toxicity in mice at a significant dose of 100 mg/kg administered intraperitoneally after 5 days of treatment; conditions: route intraperitoneal
# Mus musculus [20] = experiment: Tested for high-dose toxicity in mice at a significant dose of 45 mg/kg administered intraperitoneally after 5 days of treatment; conditions: route intraperitoneal
# Mus musculus [21] = experiment: Tested for high-dose toxicity in mice at a significant dose of 60 mg/kg administered intraperitoneally after 5 days of treatment; conditions: route intraperitoneal
# Mus musculus [22] = experiment: Tested for high-dose toxicity in mice at a significant dose of 90 mg/kg administered intraperitoneally after 1 days of treatment; conditions: route intraperitoneal
# Mus musculus [23] = experiment: Tested for high-dose toxicity in mice at a significant dose of 90 mg/kg administered intraperitoneally after 5 days of treatment; conditions: route intraperitoneal
# Mus musculus [24] = experiment: Tested for percent average weekly weight change in mice at a significant dose of 80 mg/kg administered intraperitoneally; conditions: route intraperitoneal
# Mus musculus [25] = experiment: Tested for skin toxicity in BALB/c mice administered intraintradermally and involved concentric circular areas of ulceration
# Mus musculus [26] = experiment: Tested for skin toxicity in BALB/c mice at a significant dose of 0.25 mg/kg administered intraintradermally and involved concentric circular areas of erythema
# Mus musculus [27] = experiment: Tested for skin toxicity in BALB/c mice at a significant dose of 0.25 mg/kg administered intraintradermally and involved concentric circular areas of induration.
# Mus musculus [28] = experiment: Tested for skin toxicity in BALB/c mice at a significant dose of 0.25 mg/kg administered intraintradermally and involved concentric circular areas of ulceration
# Mus musculus [29] = experiment: Tested for skin toxicity in BALB/c mice at a significant dose of 0.75 mg/kg administered intraintradermally and involved concentric circular areas of erythema
# Mus musculus [30] = experiment: Tested for skin toxicity in BALB/c mice at a significant dose of 0.75 mg/kg administered intraintradermally and involved concentric circular areas of ulceration
# Mus musculus [31] = experiment: Tested for skin toxicity in BALB/c mice at a significant dose of 1.25 mg/kg administered intraintradermally and involved concentric circular areas of erythema
# Mus musculus [32] = experiment: Tested for skin toxicity in BALB/c mice at a significant dose of 2.00 mg/kg administered intraintradermally and involved concentric circular areas of induration.
# Mus musculus [33] = experiment: Tested for skin toxicity in BALB/c mice at a significant dose of 2.00 mg/kg administered intraintradermally and involved concentric circular areas of ulceration
# Mus musculus [34] = experiment: Tested for skin toxicity in BALB/c mice at a significant dose of 2.5 mg/kg administered intraintradermally and involved concentric circular areas of ulceration
# Mus musculus [35] = experiment: Tested for percent average weekly weight change in mice at a significant dose of 60 mg/kg administered intraperitoneally after 5 days of treatment; conditions: route intraperitoneal
# P388 [36] = experiment: Antileukemic activity against P-388 in mice at a dose of 60 mg/kg administered intraperitoneally after 5 day treatment; conditions: Mus musculus, P388, ip, 120 h, route intraperitoneal
# P388 [37] = experiment: Antileukemic activity against P-388 in mice at a dose of 70 mg/kg administered intraperitoneally after 1 day treatment; conditions: Mus musculus, P388, ip, 24 h, route intraperitoneal
# P388 [38] = experiment: Antileukemic activity against P-388 in mice at a dose of 70 mg/kg administered intraperitoneally after 5 day treatment; conditions: Mus musculus, P388, ip, 120 h, route intraperitoneal
# P388 [39] = experiment: Antileukemic activity against P-388 in mice at a dose of 30 mg/kg administered intraperitoneally after 5 day treatment; conditions: Mus musculus, P388, ip, 120 h, route intraperitoneal
# WiDr = experiment: Tested in vitro for inhibitory activity of human tumor cell growth against WIDR colon tumor, by using clonogenic assays.; conditions: read-out: ID50 (the source's name)
structure (smiles),measurement,setting,value
CN(C)CCNCc1c2ccccc2c(CNCCN(C)C)c2ccccc12,inhibition at 0.3 µg/mL,RPMI-8226 [1],8.4%
same,inhibition at 0.5 µg/mL,RPMI-8226 [2],24.3%
same,inhibition at 1 µg/mL,RPMI-8226 [3],21.1%
same,inhibition at 0.01 µg/mL,RPMI-8226 [4],67.5%
same,inhibition at 0.5 µg/mL,RPMI-8226 [5],63.5%
same,inhibition at 0.3 µg/mL,RPMI-8226 [6],0%
same,ILS at 30 mg/kg,L1210 [7],5%
same,ILS at 60 mg/kg,L1210 [8],17%
same,inhibition at 0.3 µg/mL,L1210 [9],9.8%
same,inhibition at 0.5 µg/mL,L1210 [10],7.2%
same,ILS at 70 mg/kg,L1210 [11],40%
same,ILS at 80 mg/kg,L1210 [12],14%
same,ILS at 80 mg/kg,L1210 [13],15%
same,ILS at 90 mg/kg,L1210 [14],3%
same,inhibition at 1 µg/mL,L1210 [15],48.7%
same,inhibition at 0.3 µg/mL,L1210 [16],0%
same,inhibition at 10 µg/mL,L1210 [17],75.7%
same,Lethality,Mus musculus [18],60%
same,Median day of death,Mus musculus [18],0
same,Lethality,Mus musculus [19],80%
same,Median day of death,Mus musculus [19],8
same,Lethality,Mus musculus [20],30%
same,Median day of death,Mus musculus [20],2
same,Lethality,Mus musculus [21],0%
same,Lethality,Mus musculus [22],20%
same,Median day of death,Mus musculus [22],10
same,Lethality,Mus musculus [23],20%
same,Median day of death,Mus musculus [23],3
same,Lethality,Mus musculus [24],-3%
same,Extent of skin lesions,Mus musculus [25],1.9 cm**2
same,Extent of skin lesions,Mus musculus [26],0.3 cm**2
same,Extent of skin lesions,Mus musculus [27],0.7 cm**2
same,Extent of skin lesions,Mus musculus [28],0.2 cm**2
same,Extent of skin lesions,Mus musculus [29],1.3 cm**2
same,Extent of skin lesions,Mus musculus [30],1 cm**2
same,Extent of skin lesions,Mus musculus [31],2.2 cm**2
same,Extent of skin lesions,Mus musculus [32],5.3 cm**2
same,Extent of skin lesions,Mus musculus [33],2.6 cm**2
same,Extent of skin lesions,Mus musculus [34],3.8 cm**2
same,Average weekly weight change,Mus musculus [35],0%
same,ILS at 60 mg/kg,P388 [36],25%
same,ILS at 70 mg/kg,P388 [37],27%
same,ILS at 70 mg/kg,P388 [38],10%
same,ILS at 30 mg/kg,P388 [39],0%
same,pIC50,WiDr,6.74

# — ChEMBL document CHEMBL1123796, “New antitumor agents containing the anthracene nucleus” (1987)
